Where a chain is given by its changes, count along the chain named. Blank lines part the entries; values can stand above or below the molecule they belong to.
Columns and labels:
[1] = target: T1, ZCCHC4_24-464 (Homo sapiens, UniProt Q9H5U6, K55A/E56A/E57A/K167A/K168A); assay: X-ray crystal structure, […] Å; format: binding; details: cofactor pocket of the MTase domain; no RNA
T1 construct: gene ZCCHC4; core fragment, residues 24-464, five surface mutations for crystallization; His6-SUMO tag cleaved by ULP1; E. coli BL21(DE3) RIL
T1 sequence (Q9H5U6 24-464 K55A/E56A/E57A/K167A/K168A): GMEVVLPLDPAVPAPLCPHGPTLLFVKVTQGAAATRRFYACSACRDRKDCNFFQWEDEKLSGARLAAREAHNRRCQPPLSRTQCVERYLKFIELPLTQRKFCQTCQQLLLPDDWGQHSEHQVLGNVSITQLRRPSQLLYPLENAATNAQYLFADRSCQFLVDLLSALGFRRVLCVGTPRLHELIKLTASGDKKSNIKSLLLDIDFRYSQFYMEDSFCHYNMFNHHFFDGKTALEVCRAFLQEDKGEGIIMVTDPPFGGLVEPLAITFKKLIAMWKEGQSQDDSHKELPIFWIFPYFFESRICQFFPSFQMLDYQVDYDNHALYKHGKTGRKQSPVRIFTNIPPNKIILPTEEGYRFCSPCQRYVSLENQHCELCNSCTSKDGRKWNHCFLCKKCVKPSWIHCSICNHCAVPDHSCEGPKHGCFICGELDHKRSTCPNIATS

[2] = target: T2, ZCCHC4_24-513 (Homo sapiens, UniProt Q9H5U6); assay: isothermal titration calorimetry; format: binding
T2 construct: gene ZCCHC4; residues 24-513; His6-SUMO tag cleaved by ULP1; E. coli BL21(DE3) RIL; monomer in solution
T2 sequence (Q9H5U6 24-513): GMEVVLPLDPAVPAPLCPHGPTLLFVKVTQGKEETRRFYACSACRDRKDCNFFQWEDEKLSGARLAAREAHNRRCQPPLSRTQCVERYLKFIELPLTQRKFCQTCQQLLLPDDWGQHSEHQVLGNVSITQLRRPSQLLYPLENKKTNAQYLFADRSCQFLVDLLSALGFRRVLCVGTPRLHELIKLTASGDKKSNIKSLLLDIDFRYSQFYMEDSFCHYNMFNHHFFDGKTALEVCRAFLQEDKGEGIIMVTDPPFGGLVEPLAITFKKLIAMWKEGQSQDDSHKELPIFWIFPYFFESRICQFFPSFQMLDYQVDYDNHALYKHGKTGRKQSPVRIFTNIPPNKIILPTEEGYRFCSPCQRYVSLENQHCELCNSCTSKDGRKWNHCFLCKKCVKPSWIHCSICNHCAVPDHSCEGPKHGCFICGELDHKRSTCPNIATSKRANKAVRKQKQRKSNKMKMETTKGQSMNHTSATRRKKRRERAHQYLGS

[3] = target: T3, ZCCHC4_24-513 (Homo sapiens, UniProt Q9H5U6, H343A); assay: isothermal titration calorimetry; format: binding
T3 construct: gene ZCCHC4; residues 24-513; His6-SUMO tag cleaved by ULP1; E. coli BL21(DE3) RIL; monomer in solution
T3 sequence (Q9H5U6 24-513 H343A): T2 sequence (Q9H5U6 24-513) with H320A

[4] = target: T4, ZCCHC4 24-464 WT (core) (human, UniProt Q9H5U6 24-464); assay: EMSA; EMSA: 20 mM Tris-HCl pH 7.5, 100 mM NaCl, 5% glycerol, 1 mM DTT, 4 C, 1 h; 0.3 uM RNA with 0-1.2 uM protein unless noted; 6% TBE native gel; details: protein: recombinant; tags: His6-SUMO removed by ULP1; label: none (SYBR Gold stain); stem-loop with tail
T4 sequence: T1 sequence (Q9H5U6 24-464 K55A/E56A/E57A/K167A/K168A) with A32K, A33E, A34E, A144K, A145K

Molecule: Nc1ncnc2c1ncn2[C@@H]1O[C@H](CSCC[C@H](N)C(=O)O)[C@@H](O)[C@H]1O [SAH]
X-ray crystal structure, 3.1 Å [1]: in complex with S-adenosyl-L-homocysteine (SAH)

Kd [2]: 6.7 µM
Kd [3]: 1.6 µM
Molecule: C[S+](CC[C@H](N)C(=O)O)C[C@H]1O[C@@H](n2cnc3c(N)ncnc32)[C@H](O)[C@@H]1O (stereo partly shown) [SAM]

Molecule: CGGUACACCUGUCAAACGGUAACGCAGGUG (structured_RNA) [30-mer 28S rRNA]
binding result [4]: binds
